Experimental data from PubChem BioAssay (NCI).
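A five-concentration, 48-hour dose response in 96-well plates underlies each endpoint, interpolated linearly between surrounding concentrations. The concentration for 50% growth inhibition is given as GI50. TGI is the concentration that stops growth completely.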

Legend:
Assay in all cases: NCI anticancer screen, dose series, 48 h
786-0 renal = tested on: 786-0 renal
A498 renal = tested on: A498 renal
A549 NSCLC = tested on: A549 NSCLC
ACHN renal = tested on: ACHN renal
BT-549 breast = tested on: BT-549 breast
CAKI-1 renal = tested on: CAKI-1 renal
CCRF-CEM leukemia = tested on: CCRF-CEM leukemia
COLO 205 colon = tested on: COLO 205 colon
DU-145 prostate = tested on: DU-145 prostate
EKVX NSCLC = tested on: EKVX NSCLC
HCC-2998 colon = tested on: HCC-2998 colon
HCT-116 colon = tested on: HCT-116 colon
HCT-15 colon = tested on: HCT-15 colon
HL-60(TB) leukemia = tested on: HL-60(TB) leukemia
HOP-62 NSCLC = tested on: HOP-62 NSCLC
HOP-92 NSCLC = tested on: HOP-92 NSCLC
HS 578T breast = tested on: HS 578T breast
HT29 colon = tested on: HT29 colon
IGROV1 ovarian = tested on: IGROV1 ovarian
K-562 leukemia = tested on: K-562 leukemia
KM12 colon = tested on: KM12 colon
LOX IMVI melanoma = tested on: LOX IMVI melanoma
M14 melanoma = tested on: M14 melanoma
MALME-3M melanoma = tested on: MALME-3M melanoma
MCF7 breast = tested on: MCF7 breast
MDA-MB-231 breast = tested on: MDA-MB-231 breast
MDA-MB-435 = tested on: MDA-MB-435
MOLT-4 leukemia = tested on: MOLT-4 leukemia
NCI-H226 lung = tested on: NCI-H226 lung
NCI-H23 lung = tested on: NCI-H23 lung
NCI-H460 lung = tested on: NCI-H460 lung
NCI-H522 lung = tested on: NCI-H522 lung
NCI/ADR-RES ovarian = tested on: NCI/ADR-RES ovarian
OVCAR-3 ovarian = tested on: OVCAR-3 ovarian
OVCAR-4 ovarian = tested on: OVCAR-4 ovarian
OVCAR-5 ovarian = tested on: OVCAR-5 ovarian
OVCAR-8 ovarian = tested on: OVCAR-8 ovarian
PC-3 prostate = tested on: PC-3 prostate
RPMI-8226 leukemia = tested on: RPMI-8226 leukemia
RXF 393 renal = tested on: RXF 393 renal
SF-268 CNS = tested on: SF-268 CNS
SF-295 CNS = tested on: SF-295 CNS
SF-539 CNS = tested on: SF-539 CNS
SK-MEL-2 melanoma = tested on: SK-MEL-2 melanoma
SK-MEL-28 melanoma = tested on: SK-MEL-28 melanoma
SK-MEL-5 melanoma = tested on: SK-MEL-5 melanoma
SK-OV-3 ovarian = tested on: SK-OV-3 ovarian
SN12C renal = tested on: SN12C renal
SNB-19 CNS = tested on: SNB-19 CNS
SNB-75 CNS = tested on: SNB-75 CNS
SR leukemia = tested on: SR leukemia
SW-620 colon = tested on: SW-620 colon
T-47D breast = tested on: T-47D breast
TK-10 renal = tested on: TK-10 renal
U251 CNS = tested on: U251 CNS
UACC-257 melanoma = tested on: UACC-257 melanoma
UACC-62 melanoma = tested on: UACC-62 melanoma
UO-31 renal = tested on: UO-31 renal
MDA-N = tested on: MDA-N

C[C@@]1(F)[C@H](O)[C@@H](CO)O[C@H]1n1ccc(=O)[nH]c1=O
GI50 (786-0 renal): > 100 µM | TGI (786-0 renal): > 100 µM | GI50 (A498 renal): > 100 µM | TGI (A498 renal): > 100 µM | GI50 (A549 NSCLC): > 100 µM | TGI (A549 NSCLC): > 100 µM | GI50 (ACHN renal): > 100 µM | TGI (ACHN renal): > 100 µM | GI50 (BT-549 breast): > 100 µM | TGI (BT-549 breast): > 100 µM | GI50 (CAKI-1 renal): > 100 µM | TGI (CAKI-1 renal): > 100 µM | GI50 (CCRF-CEM leukemia): > 100 µM | TGI (CCRF-CEM leukemia): > 100 µM | GI50 (COLO 205 colon): > 100 µM | TGI (COLO 205 colon): > 100 µM | GI50 (DU-145 prostate): > 100 µM | TGI (DU-145 prostate): > 100 µM | GI50 (EKVX NSCLC): > 100 µM | TGI (EKVX NSCLC): > 100 µM | GI50 (HCC-2998 colon): > 100 µM | TGI (HCC-2998 colon): > 100 µM | GI50 (HCT-116 colon): > 100 µM | TGI (HCT-116 colon): > 100 µM | GI50 (HCT-15 colon): > 100 µM | TGI (HCT-15 colon): > 100 µM | GI50 (HL-60(TB) leukemia): > 100 µM | TGI (HL-60(TB) leukemia): > 100 µM | GI50 (HOP-62 NSCLC): > 100 µM | TGI (HOP-62 NSCLC): > 100 µM | GI50 (HOP-92 NSCLC): > 100 µM | TGI (HOP-92 NSCLC): > 100 µM | GI50 (HS 578T breast): > 100 µM | TGI (HS 578T breast): > 100 µM | GI50 (HT29 colon): > 100 µM | TGI (HT29 colon): > 100 µM | GI50 (IGROV1 ovarian): > 100 µM | TGI (IGROV1 ovarian): > 100 µM | GI50 (K-562 leukemia): > 100 µM | TGI (K-562 leukemia): > 100 µM | GI50 (KM12 colon): > 100 µM | TGI (KM12 colon): > 100 µM | GI50 (LOX IMVI melanoma): > 100 µM | TGI (LOX IMVI melanoma): > 100 µM | GI50 (M14 melanoma): > 100 µM | TGI (M14 melanoma): > 100 µM | GI50 (MALME-3M melanoma): > 100 µM | TGI (MALME-3M melanoma): > 100 µM | GI50 (MCF7 breast): > 100 µM | TGI (MCF7 breast): > 100 µM | GI50 (MDA-MB-231 breast): > 100 µM | TGI (MDA-MB-231 breast): > 100 µM | GI50 (MDA-MB-435): > 100 µM | TGI (MDA-MB-435): > 100 µM | GI50 (MOLT-4 leukemia): > 100 µM | TGI (MOLT-4 leukemia): > 100 µM | GI50 (NCI-H226 lung): > 100 µM | TGI (NCI-H226 lung): > 100 µM | GI50 (NCI-H23 lung): > 100 µM | TGI (NCI-H23 lung): > 100 µM | GI50 (NCI-H460 lung): > 100 µM | TGI (NCI-H460 lung): > 100 µM | GI50 (NCI-H522 lung): > 100 µM | TGI (NCI-H522 lung): > 100 µM | GI50 (NCI/ADR-RES ovarian): > 100 µM | TGI (NCI/ADR-RES ovarian): > 100 µM | GI50 (OVCAR-3 ovarian): > 100 µM | TGI (OVCAR-3 ovarian): > 100 µM | GI50 (OVCAR-4 ovarian): > 100 µM | TGI (OVCAR-4 ovarian): > 100 µM | GI50 (OVCAR-5 ovarian): > 100 µM | TGI (OVCAR-5 ovarian): > 100 µM | GI50 (OVCAR-8 ovarian): > 100 µM | TGI (OVCAR-8 ovarian): > 100 µM | GI50 (PC-3 prostate): > 100 µM | TGI (PC-3 prostate): > 100 µM | GI50 (RPMI-8226 leukemia): > 100 µM | TGI (RPMI-8226 leukemia): > 100 µM | GI50 (RXF 393 renal): > 100 µM | TGI (RXF 393 renal): > 100 µM | GI50 (SF-268 CNS): > 100 µM | TGI (SF-268 CNS): > 100 µM | GI50 (SF-295 CNS): > 100 µM | TGI (SF-295 CNS): > 100 µM | GI50 (SF-539 CNS): > 100 µM | TGI (SF-539 CNS): > 100 µM | GI50 (SK-MEL-2 melanoma): > 100 µM | TGI (SK-MEL-2 melanoma): > 100 µM | GI50 (SK-MEL-28 melanoma): > 100 µM | TGI (SK-MEL-28 melanoma): > 100 µM | GI50 (SK-MEL-5 melanoma): > 100 µM | TGI (SK-MEL-5 melanoma): > 100 µM | GI50 (SK-OV-3 ovarian): > 100 µM | TGI (SK-OV-3 ovarian): > 100 µM | GI50 (SN12C renal): > 100 µM | TGI (SN12C renal): > 100 µM | GI50 (SNB-19 CNS): > 100 µM | TGI (SNB-19 CNS): > 100 µM | GI50 (SNB-75 CNS): > 100 µM | TGI (SNB-75 CNS): > 100 µM | GI50 (SR leukemia): > 100 µM | TGI (SR leukemia): > 100 µM | GI50 (SW-620 colon): > 100 µM | TGI (SW-620 colon): > 100 µM | GI50 (T-47D breast): > 100 µM | TGI (T-47D breast): > 100 µM | GI50 (TK-10 renal): > 100 µM | TGI (TK-10 renal): > 100 µM | GI50 (U251 CNS): > 100 µM | TGI (U251 CNS): > 100 µM | GI50 (UACC-257 melanoma): > 100 µM | TGI (UACC-257 melanoma): > 100 µM | GI50 (UACC-62 melanoma): > 100 µM | TGI (UACC-62 melanoma): > 100 µM | GI50 (UO-31 renal): > 100 µM | TGI (UO-31 renal): > 100 µM

C=C(NC(=O)C(=C)NC(=O)c1ccc2c(n1)-c1coc(n1)C(=C)NC(=O)C(=C)NC(=O)c1nc(oc1C)C(=C)NC(=O)C(C(C)(C)O)NC(=O)C(=C)NC(=O)c1coc(n1)/C(=C/C)NC(=O)[C@H]([C@@H](C)O)NC(=O)c1csc-2n1)C(N)=O (some centres not stated)
TGI (786-0 renal): > 87.5 µM | TGI (A498 renal): > 87.5 µM | TGI (A549 NSCLC): > 87.5 µM | TGI (ACHN renal): > 87.5 µM | TGI (BT-549 breast): > 87.5 µM | TGI (CAKI-1 renal): > 87.5 µM | TGI (CCRF-CEM leukemia): > 87.5 µM | TGI (COLO 205 colon): > 87.5 µM | TGI (DU-145 prostate): > 87.5 µM | TGI (EKVX NSCLC): > 87.5 µM | TGI (HCC-2998 colon): > 87.5 µM | TGI (HCT-116 colon): > 87.5 µM | TGI (HCT-15 colon): > 87.5 µM | TGI (HL-60(TB) leukemia): > 87.5 µM | TGI (HOP-62 NSCLC): > 87.5 µM | TGI (HOP-92 NSCLC): > 87.5 µM | TGI (HS 578T breast): > 87.5 µM | TGI (HT29 colon): > 8.75 µM | TGI (IGROV1 ovarian): > 87.5 µM | TGI (K-562 leukemia): > 87.5 µM | TGI (KM12 colon): > 87.5 µM | TGI (LOX IMVI melanoma): > 87.5 µM | TGI (M14 melanoma): > 87.5 µM | TGI (MALME-3M melanoma): > 87.5 µM | TGI (MCF7 breast): > 87.5 µM | TGI (MDA-MB-231 breast): > 87.5 µM | TGI (MDA-MB-435): > 87.5 µM | TGI (MDA-N): > 87.5 µM | TGI (MOLT-4 leukemia): > 87.5 µM | TGI (NCI-H226 lung): > 87.5 µM | TGI (NCI-H23 lung): > 87.5 µM | TGI (NCI-H460 lung): > 87.5 µM | TGI (NCI-H522 lung): > 87.5 µM | TGI (NCI/ADR-RES ovarian): > 87.5 µM | TGI (OVCAR-3 ovarian): > 87.5 µM | TGI (OVCAR-4 ovarian): > 87.5 µM | TGI (OVCAR-5 ovarian): > 87.5 µM | TGI (OVCAR-8 ovarian): > 87.5 µM | TGI (PC-3 prostate): > 87.5 µM | TGI (RPMI-8226 leukemia): > 87.5 µM | TGI (RXF 393 renal): > 87.5 µM | TGI (SF-268 CNS): > 87.5 µM | TGI (SF-295 CNS): > 87.5 µM | TGI (SF-539 CNS): > 87.5 µM | TGI (SK-MEL-2 melanoma): > 87.5 µM | TGI (SK-MEL-28 melanoma): > 87.5 µM | TGI (SK-MEL-5 melanoma): > 87.5 µM | TGI (SN12C renal): > 87.5 µM | TGI (SNB-19 CNS): > 87.5 µM | TGI (SNB-75 CNS): > 87.5 µM | TGI (SR leukemia): > 87.5 µM | TGI (SW-620 colon): > 87.5 µM | TGI (TK-10 renal): > 87.5 µM | TGI (U251 CNS): > 87.5 µM | TGI (UACC-257 melanoma): > 87.5 µM | TGI (UO-31 renal): > 87.5 µM
